# Test results published in patent publication US10501482B2, “Compounds for treating spinal muscular atrophy” (Hoffmann-La Roche Inc., priority 2013, dated 2019).
# Counter-ions that a name gives are not always drawn.
# Key:
# [1] = system: full length SMN2 minigene mRNA (FL SMN2mini) in HEK293H cells stably transfected with the SMN2-A minigene construct; assay: SMN2 minigene mRNA splicing RT-qPCR assay in cultured cells; assay type: cell-based; details: Homo sapiens, HEK293-H, 24 hours, 7-point concentration curve, concentration giving 1.5-fold FL SMN2mini mRNA vs vehicle, read-out: EC1.5x minigene (EC1.5x concentration for production of full length SMN2 minigene mRNA)
# In short: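 Stably transfected HEK293H cells, 10,000/well in DMEM/10% FBS with hygromycin, attached 6 h, then received compound for 24 h at 37° C in duplicate at 7 concentrations. Multiplex RT-qPCR with GAPDH used primers that detect only the minigene. An efficiency-corrected ΔΔCt, GAPDH- and vehicle-normalized, gave EC1.5x concentrations.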
# SMN protein = SMN protein assay (HTRF) in cultured SMA patient fibroblast cells; assay type: cell-based; details: SMA Type 1 human fibroblasts GM03813, 48 hours; for EC1.5x SMN protein (EC1.5x concentration for SMN protein expression): 7-point concentration curve, concentration giving 1.5 times SMN protein vs vehicle; for max. fold increase (maximum fold increase of SMN protein): 7-point concentration data, fold vs vehicle control
# In short: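 SMA patient fibroblasts seeded at 5,000 cells/well, treated 48 h at 37 °C in triplicate per concentration (7-point series). Lysed in RIPA with protease inhibitors; SMN read by HTRF (anti-SMN d2/kryptate, overnight RT), 665/620 nm ratio. ΔF vs blank, expressed as fold over vehicle; EC1.5x and maximum fold increase derived.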
Compound,EC (1.5-fold) [1],EC1.5x SMN protein (EC1.5x concentration for SMN protein expression) (SMN protein),max. fold increase (maximum fold increase of SMN protein) (SMN protein)
"Cc1nc2c(F)cc(NC(=O)c3ccc(N4CCN5CCC[C@H]5C4)nc3)cc2o1 [Example 25, (S)-N-(4-fluoro-2-methylbenzo[d]oxa-zol-6-yl)-6-(hexa-hydropyrrolo[1,2-a]pyrazin-2-(1H)-yl)nicotinamide]",0.382 µM,0.5694 µM,1.6652
"Cc1cn2cc(NC(=O)c3cnc(N4CCNCC4)c(C)c3)cc(F)c2n1 [Example 67, N-(8-fluoro-2-methylimidazo[1,2-a]pyridin-6-yl)-5-methyl-6-(piperazin-1-yl)nicotinamide]",0.318 µM,0.866 µM,1.6552
"Cc1nc2c(F)cc(NC(=O)c3ccc(N4CCNCC4)cc3)cc2o1 [Example 28, N-(4-fluoro-2-methylbenzo[d]-oxazol-6-yl)-4-(piperazin-1-yl)benzamide]",0.252 µM,0.2868 µM,1.7291
"Cc1cn2cc(NC(=O)c3ccc(N4CCNC(C)C4)cn3)ccc2n1 (racemic) [Example 17, rac-N-(2-methyl-imidazo[1,2-a]-pyridin-6-yl)-5-(3-methyl-piperazin-1-yl)-picolinamide]",0.233 µM,0.5022 µM,1.6966
"COc1cc(N2CCNCC2)ncc1C(=O)Nc1cc(F)c2nc(C)cn2c1 [Example 69, N-(8-fluoro-2-methylimidazo[1,2-a]pyridin-6-yl)-4-methoxy-6-(piperazin-1-yl)nicotinamide]",0.0308 µM,0.1645 µM,1.7612
"Cc1cn2cc(NC(=O)c3ccc(N4CCNC(C)C4)cn3)cc(F)c2n1 (racemic) [Example 43, rac-N-(8-fluoro-2-methylimidazo[1,2-a]pyridin-6-yl)-5-(3-methylpiperazin-1-yl)picolinamide dihydrochloride]",0.057 µM,0.104 µM,1.7873
"Cc1cn2cc(NC(=O)c3ccc(N4CCNCC4)nc3)cc(C(F)(F)F)c2n1 [Example 19, N-(2-methyl-8-(trifluoromethyl)-imidazo[1,2-a]-pyridin-6-yl)-6-(piperazin-1-yl)-nicotinamide]",0.267 µM,1.3818 µM,1.664
"Cc1nc2c(F)cc(NC(=O)c3ccc(N4CCN(C)CC4)nc3)cc2o1 [Example 24, N-(4-fluoro-2-methylbenzo[d]-oxazol-6-yl)-6-(4-methylpiperazin-1-yl)nicotinamide]",0.649 µM,1.2616 µM,1.756
"CCOc1nc(N2CCNCC2)ccc1C(=O)Nc1cc(F)c2nc(C)cn2c1 [Example 72, 2-ethoxy-N-(8-fluoro-2-methylimidazo[1,2-a]pyridin-6-yl)-6-(piperazin-1-yl)-nicotinamide]",0.015 µM,0.1324 µM,1.7095
"Cc1cn2cc(NC(=O)c3ccc(N4CCNCC4)c(C)c3)cc(F)c2n1 [Example 66, N-(8-fluoro-2-methylimidazo[1,2-a]pyridin-6-yl)-3-methyl-4-(piperazin-1-yl)benzamide]",0.518 µM,0.6108 µM,1.5438
"Cc1cn2cc(NC(=O)c3cc(F)c(N4CCNC(C)C4)cc3F)cc(F)c2n1 (racemic) [Example 46, rac-2,5-difluoro-N-(8-fluoro-2-methyl-imidazo[1,2-a]-pyridin-6-yl)-4-(3-methylpiperazin-1-yl)benzamide hydrochloride]",0.0887 µM,0.3584 µM,1.5572
"Cc1cn2cc(NC(=O)c3ccc(N4C[C@H]5CNC[C@H]5C4)nc3)ccc2n1 [Example 15, 6-hexahydro-pyrrolo[3,4-c]-pyrrol-2(1H)-yl)-N-(2-methyl-imidazo[1,2-a]-pyridin-6-yl)-nicotinamide hydrochloride]",0.254 µM,0.281 µM,1.6859
"Cc1cn2cc(NC(=O)c3ccc(N4CCNCC4)cc3)cc(F)c2n1.Cl [Example 36, N-(8-fluoro-2-methylimidazo[1,2-a]pyridin-6-yl)-4-(piperazin-1-yl)benzamide hydrochloride]",0.0278 µM,0.1094 µM,1.7018
"Cc1cn2cc(NC(=O)c3ccc(N4CCN(C)C(C)C4)nc3)ccc2n1 (racemic) [Example 82, rac-6-(3,4-dimethylpiperazin-1-yl)-N-(2-methylimidazo[1,2-a]pyridin-6-yl)nicotinamide]",0.371 µM,0.7698 µM,1.7306
"Cc1cn2cc(NC(=O)c3ccc(C4=CCNCC4)nc3)cc(F)c2n1 [Example 62, N-(8-fluoro-2-methylimidazo[1,2-a]pyridin-6-yl)-6-(1,2,3,6-tetra-hydropyridin-4-yl)nicotinamide dihydrochloride]",0.0136 µM,,1.5583
"Cc1cn2cc(NC(=O)c3ccc(N4CCN(C)CC4)nc3)cc(F)c2n1 [Example 32, N-(8-fluoro-2-methylimidazo-[1,2-a]pyridin-6-yl)-6-(4-methyl-piperazin-1-yl)-nicotinamide]",0.0938 µM,0.2028 µM,1.7579
"Cc1cn2cc(NC(=O)c3ccc(N4CCNC(C)C4)cc3F)cc(C)c2n1 (racemic) [Example 37, rac-N-(2,8-dimethyl-imidazo[1,2-a]-pyridin-6-yl)-2-fluoro-4-(3-methylpiperazin-1-yl)benamide dihydrochloride]",0.028 µM,0.1196 µM,1.7758
"Cc1cn2cc(NC(=O)c3ccc(N4CCNCC4)cc3F)cc(F)c2n1 [Example 40, 2-fluoro-N-(8-fluoro-2-methyl-imidazo[1,2-a]-pyridin-6-yl)-4-(piperazin-1-yl)benzamide dihydrochloride]",0.0108 µM,0.0276 µM,1.7607
"Cc1cn2cc(NC(=O)c3ccc(N4CCNC(C)C4)cc3F)ccc2n1 (racemic) [Example 18, rac-2-fluoro-N-(2 methylimidazo-[1,2-a]pyridin-6-yl)-4(3-methyl-piperazin-1-yl)-benzamide]",0.0523 µM,0.1346 µM,1.7677
"Cc1cn2cc(NC(=O)c3ccc(N4CCNCC4)cc3F)ccc2n1 [Example 44, 2-fluoro-N-(2-methylimidazo[1,2-a]pyridin-6-yl)-4-(piperazin-1-yl)-benzamidehydro-chloride]",0.0648 µM,0.13 µM,1.8243
